In patent publication US12077503B2, “Substituted cyclic amides and their use as herbicides” (FMC CORPORATION, priority 2015, dated 2024):

Columns and labels:
Type in all cases: in vivo
[1] = system: barnyardgrass (Echinochloa crus-galli); assay: Test A postemergence; conditions: Echinochloa crus-galli, post-emergence, 240 h, Postemergence
Summary of the method: (§1)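 Treatment is preemergence as a directed soil spray after planting, or postemergence at the one- to two-leaf stage, with test chemical in a non-phytotoxic solvent mixture plus surfactant. Plants stay in the greenhouse about 10 d before visual injury scoring on a 0 to 100 scale versus untreated controls.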

Kochia (Kochia scoparia) [2] = assay: Test A postemergence; conditions: Bassia scoparia, post-emergence, 240 h, Postemergence
Summary of the method: as §1

[3] = system: wheat (Triticum aestivum); assay: Test A postemergence; conditions: Triticum aestivum, post-emergence, 240 h, Postemergence
Summary of the method: as §1

corn (Zea mays) = assay: Test A postemergence; conditions: Zea mays, post-emergence, 240 h, Postemergence
Summary of the method: as §1

[4] = system: ragweed (common ragweed, Ambrosia elatior); assay: Test A postemergence; conditions: Ambrosia artemisiifolia, post-emergence, 240 h, Postemergence
Summary of the method: as §1

[5] = system: pigweed (Amaranthus retroflexus); assay: Test A postemergence; conditions: Amaranthus retroflexus, post-emergence, 240 h, Postemergence
Summary of the method: as §1

[6] = system: blackgrass (Alopecurus myosuroides); assay: Test A postemergence; conditions: Alopecurus myosuroides, post-emergence, 240 h, Postemergence
Summary of the method: as §1

[7] = system: Galium (catchweed bedstraw, Galium aparine); assay: Test A postemergence; conditions: Galium, post-emergence, 240 h, Postemergence
Summary of the method: as §1

[8] = system: giant foxtail (Setaria faberii); assay: Test A postemergence; conditions: Setaria faberi, post-emergence, 240 h, Postemergence
Summary of the method: as §1

[9] = system: barnyardgrass (Echinochloa crus-galli); assay: Test A preemergence; conditions: Echinochloa crus-galli, pre-emergence, 240 h, 0 to 100 scale (0 no effect, 100 complete control), read-out: Plant response rating, Barnyardgrass
Summary of the method: as §1

Kochia (Kochia scoparia) [10] = assay: Test A preemergence; conditions: Bassia scoparia, pre-emergence, 240 h, 0 to 100 scale (0 no effect, 100 complete control), read-out: Plant response rating, Kochia
Summary of the method: as §1

[11] = system: ragweed (common ragweed, Ambrosia elatior); assay: Test A preemergence; conditions: Ambrosia artemisiifolia, pre-emergence, 240 h, 0 to 100 scale (0 no effect, 100 complete control), read-out: Plant response rating, Ragweed
Summary of the method: as §1

[12] = system: pigweed (Amaranthus retroflexus); assay: Test A preemergence; conditions: Amaranthus retroflexus, pre-emergence, 240 h, 0 to 100 scale (0 no effect, 100 complete control), read-out: Plant response rating, Pigweed
[13] = system: ryegrass, Italian (Italian ryegrass, Lolium multiflorum); assay: Test A preemergence; conditions: Lolium multiflorum, pre-emergence, 240 h, 0 to 100 scale (0 no effect, 100 complete control), read-out: Plant response rating, Ryegrass, Italian
Summary of the method: as §1

[14] = system: giant foxtail (Setaria faberii); assay: Test A preemergence; conditions: Setaria faberi, pre-emergence, 240 h, 0 to 100 scale (0 no effect, 100 complete control), read-out: Plant response rating, Foxtail, Giant
Summary of the method: as §1

CN1C[C@H](c2cc(C(F)(F)F)cs2)[C@@H](C(=O)Nc2cccc(F)c2F)C1=O [Compound 1377]
90%: pest or weed control at 125 g/ha ([1]; 125 g ai/ha, visual rating about 10 d after treatment, read-out: Barnyardgrass plant response rating (0 to 100 scale, 0 no effect, 100 complete control)) | pest or weed control at 500 g/ha ([1]; 500 g ai/ha, visual injury, 0 to 100 scale (0 no effect, 100 complete control), approx. 10 d, read-out: Plant response rating, Barnyardgrass)
0%: pest or weed control at 125 g/ha ([11]; Preemergence, 125 g ai/ha)
50%: pest or weed control at 125 g/ha (Kochia (Kochia scoparia) [2]; 125 g ai/ha, visual rating about 10 d after treatment, read-out: Kochia plant response rating (0 to 100 scale)) | plant injury at 125 g/ha (corn (Zea mays); 125 g ai/ha, visual rating about 10 d after treatment, read-out: Corn plant response rating (0 to 100 scale)) | pest or weed control at 500 g/ha ([13]; 500 g ai/ha, preemergence)
70%: pest or weed control at 500 g/ha (Kochia (Kochia scoparia) [2]; 500 g ai/ha, visual injury, 0 to 100 scale (0 no effect, 100 complete control), approx. 10 d, read-out: Plant response rating, Kochia) | pest or weed control at 125 g/ha (Kochia (Kochia scoparia) [10]; Preemergence, 125 g ai/ha)
100%: pest or weed control at 500 g/ha ([9]; 500 g ai/ha, preemergence) | pest or weed control at 500 g/ha ([14]; 500 g ai/ha, preemergence) | pest or weed control at 125 g/ha ([14]; Preemergence, 125 g ai/ha)
20%: pest or weed control at 125 g/ha ([4]; 125 g ai/ha, visual rating about 10 d after treatment, read-out: Ragweed plant response rating (0 to 100 scale)) | pest or weed control at 125 g/ha ([5]; 125 g ai/ha, visual rating about 10 d after treatment, read-out: Pigweed plant response rating (0 to 100 scale)) | pest or weed control at 125 g/ha ([6]; 125 g ai/ha, visual rating about 10 d after treatment, read-out: Blackgrass plant response rating (0 to 100 scale)) | pest or weed control at 125 g/ha ([12]; Preemergence, 125 g ai/ha) | pest or weed control at 125 g/ha ([13]; Preemergence, 125 g ai/ha)
40%: pest or weed control at 500 g/ha ([5]; 500 g ai/ha, visual injury, 0 to 100 scale (0 no effect, 100 complete control), approx. 10 d, read-out: Plant response rating, Pigweed) | pest or weed control at 125 g/ha ([7]; 125 g ai/ha, visual rating about 10 d after treatment, read-out: Galium plant response rating (0 to 100 scale)) | pest or weed control at 500 g/ha ([12]; 500 g ai/ha, preemergence)
60%: plant injury at 500 g/ha ([3]; 500 g ai/ha, visual injury, 0 to 100 scale (0 no effect, 100 complete control), approx. 10 d, read-out: Plant response rating, Wheat) | pest or weed control at 500 g/ha ([4]; 500 g ai/ha, visual injury, 0 to 100 scale (0 no effect, 100 complete control), approx. 10 d, read-out: Plant response rating, Ragweed) | pest or weed control at 500 g/ha ([6]; 500 g ai/ha, visual injury, 0 to 100 scale (0 no effect, 100 complete control), approx. 10 d, read-out: Plant response rating, Blackgrass) | pest or weed control at 500 g/ha ([7]; 500 g ai/ha, visual injury, 0 to 100 scale (0 no effect, 100 complete control), approx. 10 d, read-out: Plant response rating, Galium)
80%: Corn plant response rating (crop injury, 0 = no effect, 100 = complete kill) at 500 g/ha (corn (Zea mays); 500 g ai/ha, visual injury, 0 to 100 scale (0 no effect, 100 complete control), approx. 10 d) | pest or weed control at 125 g/ha ([8]; 125 g ai/ha, visual rating about 10 d after treatment, read-out: Foxtail, Giant plant response rating (0 to 100 scale)) | pest or weed control at 500 g/ha ([8]; 500 g ai/ha, visual injury, 0 to 100 scale (0 no effect, 100 complete control), approx. 10 d, read-out: Plant response rating, Foxtail, Giant) | pest or weed control at 125 g/ha ([9]; Preemergence, 125 g ai/ha) | pest or weed control at 500 g/ha (Kochia (Kochia scoparia) [10]; 500 g ai/ha, preemergence)
30%: plant injury at 125 g/ha ([3]; 125 g ai/ha, visual rating about 10 d after treatment, read-out: Wheat plant response rating (0 to 100 scale)) | pest or weed control at 500 g/ha ([11]; 500 g ai/ha, preemergence)
